Measurements: patent US8664226B2, “Compound having 3-heteroarylpyrimidin-4-(3H)-one structure and pharmaceutical preparation containing same” (Kowa Company, Ltd., priority 2009, dated 2014)

Each compound was assayed against T1, angiotensin II type 1 receptor (Oryctolagus cuniculus, UniProt P34976) (assay: Angiotensin II antagonistic activity in isolated rabbit blood vessels). Settings: angiotensin II (10 nM)-induced contraction of rabbit thoracic aorta ring.
T1 construct: By using a specimen of isolated rabbit blood vessels; from tissue; host or cells: rabbit thoracic aorta ring (New Zealand White, male)
T1 sequence (P34976 1-359): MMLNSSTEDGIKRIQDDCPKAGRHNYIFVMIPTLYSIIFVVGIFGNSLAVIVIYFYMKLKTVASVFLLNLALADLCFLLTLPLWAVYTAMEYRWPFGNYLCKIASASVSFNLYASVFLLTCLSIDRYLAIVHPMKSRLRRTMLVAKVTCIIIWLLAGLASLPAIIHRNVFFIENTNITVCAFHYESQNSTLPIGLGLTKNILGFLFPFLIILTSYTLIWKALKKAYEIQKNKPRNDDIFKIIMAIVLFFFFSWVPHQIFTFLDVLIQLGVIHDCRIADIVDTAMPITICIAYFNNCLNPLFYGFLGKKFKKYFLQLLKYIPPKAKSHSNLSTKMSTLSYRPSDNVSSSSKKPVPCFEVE
Method: By using a specimen of isolated rabbit blood vessels, antagonistic activity of the compounds of the invention against angiotensin II type 1 receptor was estimated from a dose-response curve of angiotensin II-induced blood vessel contraction.
During the measurement, the inside temperature of the magnus bath was maintained at 37° C. and the bath was continuously ventilated with a sufficient amount of mixed gas (95% O2 and 5% CO2). The angiotensin II-induced contraction was converted into a relative value (%) that is based on the angiotensin II (10 nM)-induced contraction in the absence of the compounds of each example. From the concentration-response curve obtained therefrom, 50% inhibition concentration (IC50 value) was calculated by using SAS Preclinical Package Ver5.0 (trade name, manufactured by SAS institute Japan Co., Tokyo, Japan), which is a statistical analysis program.

Row | SMILES | IC50
1 | CCCCc1nc(C)n(-c2ncc(OCCCC(=O)NC(C)C)cn2)c(=O)c1Cc1ccc(-c2ccccc2-c2nnn[nH]2)cc1 [Example 51, 4-{2-{5-{[2′-(1H-tetrazol-5-yl)biphenyl-4-yl]methyl}-4-butyl-2-methyl-6-oxopyrimidin-1(6H)-yl}pyrimidin-5-yloxy}-N-isopropylbutanamide] | 5.8 nM
2 | CCCCc1nc(C)n(-c2ncccn2)c(=O)c1Cc1ccc(-c2ccccc2-c2nnn[nH]2)cc1 [Example 17, 5-{[2′-(1H-tetrazol-5-yl)biphenyl-4-yl]methyl}-6-butyl-2-methyl-3-(pyrimidin-2-yl)pyrimidin-4 (3H)-one] | 9.2 nM
3 | CCCCc1nc(C)n(-c2ncc(OCc3nc(-c4ccc5ccccc5c4)oc3C)cn2)c(=O)c1Cc1ccc(-c2ccccc2-c2nnn[nH]2)cc1 [Example 34, 5-{[2′-(1H-tetrazol-5-yl)biphenyl-4-yl]methyl}-6-butyl-2-methyl-3-{5-{[5-methyl-2-(naphthalen-2-yl)oxazol-4-yl]methoxy}pyrimidin-2-yl}-pyrimidin-4 (3H)-one] | 754 nM
4 | CCCCc1nc(C)n(-c2nnc(C)c(C)n2)c(=O)c1Cc1ccc(-c2ccccc2-c2nnn[nH]2)cc1 [Example 61, 5-{[2′-(1H-tetrazol-5-yl)biphenyl-4-yl]methyl}-6-butyl-3-(5,6-dimethyl-1,2,4-triazin-3-yl)-2-methylpyrimidin-4 (3H)-one] | 25 nM
5 | CCCCc1nc(C)n(-c2ncn(C)n2)c(=O)c1Cc1ccc(-c2ccccc2-c2nnn[nH]2)cc1 [Example 65, 5-{[2′-(1H-tetrazol-5-yl)biphenyl-4-yl]methyl}-6-butyl-2-methyl-3-(1-methyl-1H-1,2,4-triazol-3-yl)pyrimidin-4 (3H)-one] | 23 nM
6 | CCCCc1nc(C)n(-c2ncc(OCc3nc(-c4ccco4)oc3C)cn2)c(=O)c1Cc1ccc(-c2ccccc2-c2nnn[nH]2)cc1 [Example 33, 5-{[2′-(1H-tetrazol-5-yl)biphenyl-4-yl]methyl}-6-butyl-3-{5-{[2-(furan-2-yl)-5-methyloxazol-4-yl]methoxy}pyrimidin-2-yl}-2-methylpyrimidin-4 (3H)-one] | 956 nM
7 | CCCCc1nc(C)n(-c2ncc(OCCCCC(=O)N(CC)CC)cn2)c(=O)c1Cc1ccc(-c2ccccc2-c2nnn[nH]2)cc1 [Example 55, 5-{2-{5-{[2′-(1H-tetrazol-5-yl)biphenyl-4-yl]methyl}-4-butyl-2-methyl-6-oxopyrimidin-1(6H)-yl}pyrimidin-5-yloxy}-N,N-diethylpentanamide] | < 100 nM
8 | CCCCc1nc(C)n(-c2ncc(OCCCC(=O)NCCC)cn2)c(=O)c1Cc1ccc(-c2ccccc2-c2nnn[nH]2)cc1 [Example 50, 4-{2-{5-{[2′-(1H-tetrazol-5-yl)biphenyl-4-yl]methyl}-4-butyl-2-methyl-6-oxopyrimidin-1(6H)-yl}pyrimidin-5-yloxy}-N-propylbutanamide] | 14 nM
9 | CCCCc1nc(C)n(-c2cccc(C(F)(F)F)n2)c(=O)c1Cc1ccc(-c2ccccc2-c2nnn[nH]2)cc1 [Example 12, 5-{[2′-(1H-tetrazol-5-yl)biphenyl-4-yl]methyl}-6-butyl-2-methyl-3-[6-(trifluoromethyl)pyridin-2-yl]pyrimidin-4(3H)-one] | 230 nM
10 | CCCCc1nc(C)n(-c2ncc(OCCc3nc(-c4ccccc4)oc3C)cn2)c(=O)c1Cc1ccc(-c2ccccc2-c2nnn[nH]2)cc1 [Example 35, 5-{[2′-(1H-tetrazol-5-yl)biphenyl-4-yl]methyl}-6-butyl-2-methyl-3-{5-[2-(5-methyl-2-phenyloxazol-4-yl)ethoxy]pyrimidin-2-yl}pyrimidin-4 (3H)-one] | 347 nM
11 | CCCCc1nc(C)n(-c2ccccn2)c(=O)c1Cc1ccc(-c2ccccc2-c2nnn[nH]2)cc1 [Example 1, 5-{[2′-(1H-tetrazol-5-yl)biphenyl-4-yl]methyl}-6-butyl-2-methyl-3-(pyridin-2-yl)pyrimidin-4(3H)-one] | 2.1 nM
12 | CCCCc1nc(C)n(-c2ncc(OCc3nc(-c4ccccc4)oc3C)cn2)c(=O)c1Cc1ccc(-c2ccccc2-c2nnn[nH]2)cc1 [Example 31] | 338 nM
13 | CCCCc1nc(C)n(-c2ncc(OC(C(N)=O)c3ccccc3)cn2)c(=O)c1Cc1ccc(-c2ccccc2-c2nnn[nH]2)cc1 (stereo not drawn) [Example 44, 2-{2-{5-{[2′-(1H-tetrazol-5-yl)biphenyl-4-yl]methyl}-4-butyl-2-methyl-6-oxopyrimidin-1(6H)-yl}pyrimidin-5-yloxy}-2-phenylacetamide] | 963 nM
14 | CCCCc1nc(C)n(-c2ncc(OC3CCC(=O)CC3)cn2)c(=O)c1Cc1ccc(-c2ccccc2-c2nnn[nH]2)cc1 [Example 29, 5-{[2′-(1H-tetrazol-5-yl)biphenyl-4-yl]methyl}-6-butyl-2-methyl-3-[5-(4-oxocyclohexyloxy)pyrimidin-2-yl]pyrimidin-4 (3H)-one] | 7.7 nM
15 | CCCCc1nc(C)n(-c2ncc(O)cn2)c(=O)c1Cc1ccc(-c2ccccc2-c2nnn[nH]2)cc1 [Example 20, 5-{[2′-(1H-tetrazol-5-yl)biphenyl-4-yl]methyl}-6-butyl-3-(5-hydroxypyrimidin-2-yl)-2-methylpyrimidin-4 (3H)-one] | 6.3 nM
16 | CCCCc1nc(C)n(-c2nc(Cl)cc(Cl)n2)c(=O)c1Cc1ccc(-c2ccccc2-c2nnn[nH]2)cc1 [Example 30, 5-{[2′-(1H-tetrazol-5-yl)biphenyl-4-yl]methyl}-6-butyl-3-(4,6-dichloropyrimidin-2-yl)-2-methylpyrimidin-4 (3H)-one] | 20 nM

Results, then the compound that gave them:

Row | IC50 | SMILES
17 | 1 nM | CCCCc1nc(C)n(-c2ncc(OCC(N)=O)cn2)c(=O)c1Cc1ccc(-c2ccccc2-c2nnn[nH]2)cc1 [Example 39, 2-{2-{5-{[2′-(1H-tetrazol-5-yl)biphenyl-4-yl]methyl}-4-butyl-2-methyl-6-oxopyrimidin-1(6H)-yl}pyrimidin-5-yloxy}acetamide]
18 | 2.4 nM | CCCCc1nc(C)n(-c2ncc(OCCCNC(C)=O)cn2)c(=O)c1Cc1ccc(-c2ccccc2-c2nnn[nH]2)cc1 [Example 56, N-{3-{2-{5-{[2′-(1H-tetrazol-5-yl)biphenyl-4-yl]methyl}-4-butyl-2-methyl-6-oxopyrimidin-1 (6H)-yl}pyrimidin-5-yloxy}propyl}acetamide]
19 | 6.5 nM | CCCCc1nc(C)n(-c2ncc(OCC(=O)O)cn2)c(=O)c1Cc1ccc(-c2ccccc2-c2nnn[nH]2)cc1 [Example 38, 2-{2-{5-{[2′-(1H-tetrazol-5-yl)biphenyl-4-yl]methyl}-4-butyl-2-methyl-6-oxopyrimidin-1(6H)-yl}pyrimidin-5-yloxy}acetic acid]
20 | 25.2 nM | CCCCc1nc(C)n(-c2ncc(OCC(=O)OCC)cn2)c(=O)c1Cc1ccc(-c2ccccc2-c2nnn[nH]2)cc1 [Example 37]
21 | 9.9 nM | CCCCc1nc(C)n(-c2ncc(OCCCC(=O)NC)cn2)c(=O)c1Cc1ccc(-c2ccccc2-c2nnn[nH]2)cc1 [Example 48, 4-{2-{5-{[2′-(1H-tetrazol-5-yl)biphenyl-4-yl]methyl}-4-butyl-2-methyl-6-oxopyrimidin-1(6H)-yl}pyrimidin-5-yloxy}-N-methylbutanamide]
22 | 5 nM | CCCCc1nc(C)n(-c2ncc(OCCS(C)(=O)=O)cn2)c(=O)c1Cc1ccc(-c2ccccc2-c2nnn[nH]2)cc1 [Example 27, 5-{[2′-(1H-tetrazol-5-yl)biphenyl-4-yl]methyl}-6-butyl-2-methyl-3-{5-[2-(methylsulfonyl)ethoxy]pyrimidin-2-yl}pyrimidin-4 (3H)-one]
23 | 24 nM | CCCCc1nc(C)n(-c2ncc(OCCCO)cn2)c(=O)c1Cc1ccc(-c2ccccc2-c2nnn[nH]2)cc1 [Example 25, 5-{[2′-(1H-tetrazol-5-yl)biphenyl-4-yl]methyl}-6-butyl-3-[5-(3-hydroxypropoxy)pyrimidin-2-yl]-2-methylpyrimidin-4 (3H)-one]
24 | 8.7 nM | CCCCc1nc(C)n(-c2ncc(OCC(=O)N(CC)CC)cn2)c(=O)c1Cc1ccc(-c2ccccc2-c2nnn[nH]2)cc1 [Example 41, 2-{2-{5-{[2′-(1H-tetrazol-5-yl)biphenyl-4-yl]methyl}-4-butyl-2-methyl-6-oxopyrimidin-1(6H)-yl}pyrimidin-5-yloxy}-N,N-diethylacetamide]
25 | 4.3 nM | CCCCc1nc(C)n(-c2ncc(OCCCC(=O)O)cn2)c(=O)c1Cc1ccc(-c2ccccc2-c2nnn[nH]2)cc1 [Example 46, 4-{2-{5-{[2′-(1H-tetrazol-5-yl)biphenyl-4-yl]methyl}-4-butyl-2-methyl-6-oxopyrimidin-1(6H)-yl}pyrimidin-5-yloxy}butanoic acid]
26 | 242 nM | CCCCc1nc(C)n(-c2ncc(OCCCC(=O)OCC)cn2)c(=O)c1Cc1ccc(-c2ccccc2-c2nnn[nH]2)cc1 [Example 45, ethyl 4-{2-{5-{[2′-(1H-tetrazol-5-yl)biphenyl-4-yl]methyl}-4-butyl-2-methyl-6-oxopyrimidin-1(6H)-yl}pyrimidin-5-yloxy}butanoate]
27 | 2.7 nM | CCCCc1nc(C)n(-c2ncc(OC)cn2)c(=O)c1Cc1ccc(-c2ccccc2-c2nnn[nH]2)cc1 [Example 18, 5-{[2′-(1H-tetrazol-5-yl)biphenyl-4-yl]methyl}-6-butyl-3-(5-methoxypyrimidin-2-yl)-2-methylpyrimidin-4 (3H)-one]
